According to ChEMBL document CHEMBL1127216, “Diastereoselective synthesis of cyclopropyl phenylalanines and their incorporation into dipeptides” (Bioorg Med Chem Lett, 1993):

Legend:
[1] = biological target: T1, Gastrin/cholecystokinin type B receptor (Mus musculus, UniProt P56481); assay: Compound was tested for the inhibition of specific binding of [125I]bolton Hunter CCK-8 to Cholecystokinin type B receptor in mouse cerebral cortex; assay type: tissue-based
T1 sequence (P56481 whole entry): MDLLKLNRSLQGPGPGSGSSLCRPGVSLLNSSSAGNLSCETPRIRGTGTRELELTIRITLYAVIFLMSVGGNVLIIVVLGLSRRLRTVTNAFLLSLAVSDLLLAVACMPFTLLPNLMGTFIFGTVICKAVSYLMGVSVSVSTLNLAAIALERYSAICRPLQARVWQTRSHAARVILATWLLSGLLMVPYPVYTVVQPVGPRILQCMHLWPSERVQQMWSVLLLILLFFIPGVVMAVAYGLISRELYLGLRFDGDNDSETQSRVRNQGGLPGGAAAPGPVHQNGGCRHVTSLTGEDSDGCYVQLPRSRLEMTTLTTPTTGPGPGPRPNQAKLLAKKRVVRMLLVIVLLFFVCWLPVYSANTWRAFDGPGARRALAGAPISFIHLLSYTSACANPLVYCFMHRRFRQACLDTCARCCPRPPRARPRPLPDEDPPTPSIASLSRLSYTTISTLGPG

[2] = biological target: T2, Cholecystokinin receptor type A (Rattus norvegicus, UniProt P30551); assay: Compound was tested for the inhibition of specific binding of [125I]bolton Hunter CCK-8 to Cholecystokinin type A receptor in the rat pancreas
T2 sequence (P30551 whole entry): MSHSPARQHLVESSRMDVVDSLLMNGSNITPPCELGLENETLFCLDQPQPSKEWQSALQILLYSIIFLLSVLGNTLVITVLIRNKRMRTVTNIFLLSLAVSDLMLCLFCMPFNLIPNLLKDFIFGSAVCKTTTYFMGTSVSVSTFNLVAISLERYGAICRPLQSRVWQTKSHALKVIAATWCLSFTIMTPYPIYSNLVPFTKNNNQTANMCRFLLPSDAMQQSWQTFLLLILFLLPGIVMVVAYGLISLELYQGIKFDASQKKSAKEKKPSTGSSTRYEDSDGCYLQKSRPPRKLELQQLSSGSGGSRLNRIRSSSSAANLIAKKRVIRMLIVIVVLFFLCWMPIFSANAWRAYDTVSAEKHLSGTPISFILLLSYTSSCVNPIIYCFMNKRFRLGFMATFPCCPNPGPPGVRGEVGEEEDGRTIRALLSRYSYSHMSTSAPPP

Row | SMILES | IC50 [1] | IC50 [2]
1 | COC(=O)/C(=C/c1ccccc1)NC(=O)[C@@](C)(Cc1c[nH]c2ccccc12)NC(=O)OC1C2CC3CC(C2)CC1C3 (some centres undefined) | 270 nM | 
2 | C[C@](Cc1c[nH]c2ccccc12)(NC(=O)OC1C2CC3CC(C2)CC1C3)C(=O)N[C@@]1(C(=O)O)C[C@H]1c1ccccc1 (some centres undefined) | 140 nM | 84 nM
3 | COC(=O)[C@]1(NC(=O)[C@@](C)(Cc2c[nH]c3ccccc23)NC(=O)OC2C3CC4CC(C3)CC2C4)C[C@H]1c1ccccc1 (some centres undefined) | 600 nM | 720 nM
4 | C[C@](Cc1c[nH]c2ccccc12)(NC(=O)OC1C2CC3CC(C2)CC1C3)C(=O)N/C(=C\c1ccccc1)C(=O)O (some centres undefined) | 54 nM | 60 nM
5 | COC(=O)[C@@]1(NC(=O)[C@@](C)(Cc2c[nH]c3ccccc23)NC(=O)OC2C3CC4CC(C3)CC2C4)C[C@H]1c1ccccc1 (some centres undefined) | 3.9 nM | 26 nM
